pIC50: −log10 of the molar value. Converted amounts (≈) assume the structure as drawn. Where two headings read alike, the source gives them in different places.
What was measured:
[1] = test system: MT1 gene in WT C. neoformans; assay: MT1 gene expression by qPCR normalized to ACT1; type: cell-based, Cryptococcus neoformans; conditions: 30 min; for MT1 induction, compound alone: 10 μM compound, no Cu
Procedure: FIG. 6 is a graph showing Cu+8HQ (not QBP) increase expression levels of the MT1 gene. An overnight growth of WT C. neoformans was diluted in SC media to an OD600 of 0.2, incubated for 3 h to begin log phase growth, and treated with Cu and/or compound as indicated. After 30 min, cells were harvested and RNA was extracted, with subsequent RT-PCR to produce cDNA. Fold-change of MT1 was quantified using qPCR and normalized to ACT1. The strength of MT1 induction increases with [Cu].
5. 8HQ Increases the Cu Burden on C. neoformans. Our working hypothesis for the mechanism of action of 8HQ is that it increases the microbial burden of bioreactive Cu. If 8HQ translocates Cu into the cell in a bioavailable form, we would expect expression levels of proteins involved in Cu homeostasis to be sensitive to that influx. […] Metallothionein proteins are known to detoxify Cu and other metals by encasing them within cysteine-rich coordination sites. Increased expression of MT1 is consistent with our hypothesis that 8HQ increases bioavailable Cu, which is sensed by the cell in the form of MT1 transcription.

C. neoformans H99 strain [2] = assay: C. neoformans growth inhibition (OD600 growth curves, MIC); type: cell-based, Cryptococcus neoformans; conditions: for Growth inhibition of C. neoformans in the presence of 1 mM CuSO4: QBP up to the 100 μM dose tested; for MIC: Cryptococcus neoformans, H99STRAIN
C. neoformans H99 strain [3] = assay: as above; type: cell-based, Cryptococcus neoformans; conditions: for MIC: Cryptococcus neoformans, H99STRAIN, growth inhibition of C. neoformans, no Cu added; for C. neoformans growth with Cu, without H2O2: SC media + 10 μM CuSO4, no H2O2
Procedure: (§1) Top: Growth of C. neoformans H99 strain in SC media monitored by optical density (OD) over the course of 50 hours, where an increase in OD600 indicates normal growth. […] Bottom: In a follow up experiment to the growth curve assay shown on top, samples were taken after 50 h and plated to determine colony-forming units (CFUs).
The ability of 8-HQ to inhibit C. neoformans growth was tested with respect to metal specificity. The concentration of the indicated metals was held constant at 10 μM and cells were incubated in the presence of escalating doses of 8HQ from 0 to 50 μM. Growth was monitored over a time course in hours (x-axis) and the optical density at 600 nm was plotted at each time (y-axis).
WT C. neoformans H99 strain was grown in SC media+/−10 μM CuSO4 and 8HQ or QBP at indicated concentrations. Growth was monitored by OD600 and normalized to 100% viability for untreated controls after 50 h at 30° C.

M. marinum = M. marinum cytotoxicity comparison (data not shown); type: cell-based; conditions: no supplemental Cu, preliminary
Description: 6. Broad Spectrum Activity The antimicrobial properties of oxine (8HQ) against a broad spectrum of fungal and bacterial pathogens has long been recognized. Taking advantage of this cytotoxic activity while minimizing damage to the host has prevented the application of these compounds to combat infectious disease in humans.

E. coli = E. coli dose response in M9 minimal medium; type: cell-based; conditions: no supplemental Cu
Procedure: FIG. 9 is a graph showing that E. coli dose response to 8HQ and QBP. Under these conditions, 8HQ inhibits E. coli growth at concentrations above ˜1.5 mM, whereas QBP in nontoxic up to 10 mM. Supplemental Cu was not added in these experiments, so presumably 8HQ is using Cu present in the M9 minimal medium.
(§2) 6. Broad Spectrum Activity The antimicrobial properties of oxine (8HQ) against a broad spectrum of fungal and bacterial pathogens has long been recognized. Taking advantage of this cytotoxic activity while minimizing damage to the host has prevented the application of these compounds to combat infectious disease in humans. […] We tested this hypothesis by comparing the cytotoxicity of 8HQ vs QBP against other microbes. Preliminary results indeed show a differential cytotoxicy of 8HQ vs QBP in S. aureus (FIG. 8), E. coli (FIG. 9) and M. marinum (data not shown). In these preliminary results, supplemental Cu was not added to the growth media, so presumably 8HQ uses the basal Cu present in the media to inflict its growth inhibitory action.

[4] = test system: murine macrophage-like J774A.1 cells; assay: Viability of macrophage-like cells (CellTiter-Glo)
Procedure: Cells were seeded at 1×10^5 cells/mL in 96-well plate in DMEM+10% FBS, incubated at 37° C. for 12 h, and assayed for viability with CellTiter-Glo®.

[5] = in vitro; 25° C.; cited from earlier work
[6] = Tolerability of intraperitoneal administration to mice; type: in vivo; conditions: 2 mg/kg or 10 mg/kg every second day over a two-week period
Description: 4. Toxicity of Prochelator is Activated by H2O2.

[7] = test system: IFN-γ and LPS-activated primary bone marrow derived macrophage cells (BMM); assay: Viability of activated primary bone marrow derived macrophages; conditions: doses up to 50-100 μM, even with supplemental Cu; data not shown
S. aureus = S. aureus dose response in tryptic soy broth; type: cell-based; conditions: no supplemental Cu
Procedure: FIG. 8 is a graph showing that S. Aureus dose response to 8HQ and QBP. Under these conditions, 8HQ inhibits S. Aureus growth at concentrations above ˜150 μM, whereas QBP in nontoxic up to ˜2.5 mM. Supplemental Cu was not added in these experiments, so presumably 8HQ is using Cu present in the tryptic soy broth medium.
as §2

[8] = test system: C. neoformans CTR1/4Δ strain; conditions: YPEG media without Cu supplementation
Procedure: (§3) FIG. 7 is a graph showing the Effects of 8HQ on growth of C. neoformans mutants. A) WT C. neoformans and a MT1/2Δ[…], strain were grown in SC media with 10 μM CuSO4 and increasing [8HQ].

[9] = test system: C. neoformans MT1/2Δ strain; conditions: SC media with 10 μM CuSO4
Procedure: as §3

C. neoformans H99 strain [10] = conditions: 10 μM or higher 8HQ in the presence of 10 μM CuSO4
Procedure: as §1

[11] = growth inhibition of C. neoformans, * 1 mM Cu2+, read-out: MIC (with added Copper(II) Sulfate)
[12] = doses up to 50-100 μM, even with supplemental Cu

Cc1cc(-c2ccc(S(=O)(=O)O)cc2)c2ccc3c(-c4ccc(S(=O)(=O)O)cc4)cc(C)nc3c2n1 [BCS]
Change in MT1 expression, control chelator [1]: does not lead to a change in MT1 expression

O=S(=O)([O-])[O-].[Cu+2] [copper, Copper(II) Sulfate]
C. neoformans growth (OD600), copper tested individually (C. neoformans H99 strain [2]; 1 mM copper alone, SC media, 50 hours): not affected

Oc1ccc2ncccc2c1 [6HQ, 6-hydroxyquinoline]
MIC (C. neoformans H99 strain [3]): > 100 µM
Growth inhibition of C. neoformans in the presence of 1 mM CuSO4 (C. neoformans H99 strain [2]): does not inhibit growth
MIC (C. neoformans H99 strain [2]; [11]): > 100 µM

CC1(C)C2CC3OB(c4cccc5cccnc45)O[C@]3(C)C1C2 (stereo in doubt) [QBP, quinoline boronic ester]
Toxicity to M. marinum compared with 8HQ (M. marinum): significantly less toxic
Concentration up to which nontoxic to E. coli (E. coli): up to 10 mM
MT1 induction, compound alone [1]: do not cause robust induction of MT1
MT1 response, QBP+Cu ([1]; QBP+Cu (10 μM each)): responds identically to treatment with 10 μM CuSO4 alone
MIC (C. neoformans H99 strain [3]): > 100 µM
C. neoformans growth with Cu and H2O2 (C. neoformans H99 strain [3]; QBP/H2O2/Cu, SC media, 50 h at 30° C.): inhibited cell growth as well as 8HQ/Cu
C. neoformans growth with Cu, without H2O2 (C. neoformans H99 strain [3]; 50 h at 30° C.): did not inhibit cell growth
Toxicity to C. neoformans (C. neoformans H99 strain [3]; [12]): nontoxic
Toxicity to J774A.1 cells [4, 12]: nontoxic
Rate constant of conversion to 8HQ upon reaction with H2O2 [5]: 0.25 M⁻¹ s⁻¹
Adverse effects in mice [6]: no obvious adverse affects
Growth inhibition of C. neoformans in the presence of 1 mM CuSO4 (C. neoformans H99 strain [2]): nontoxic
MIC (C. neoformans H99 strain [2]; [11]): > 100 µM
Toxicity to BMM [7]: nontoxic
Concentration up to which nontoxic to S. aureus (S. aureus): ~2.5 mM

Oc1cccc2cccnc12 [8HQ, 8-hydroxyquinoline]
Concentration above which E. coli growth is inhibited (E. coli): ~1.5 mM
MT1 induction, compound alone [1]: do not cause robust induction of MT1
MT1 levels, 8HQ+Cu ([1]; 8HQ+Cu (10 pM each)): MT1 levels greater than what is seen with 100 μM CuSO4 alone
C. neoformans growth with Cu, without H2O2 (C. neoformans H99 strain [3]; 50 h at 30° C.): inhibits growth
IC50, cell viability of J774A.1 cells ([4]; medium supplemented with 10 μM CuSO4): sub-μM
pIC50 ([4]; read-out: IC50, cell viability of J774A.1 cells, no supplemental Cu): ~5.30
C. neoformans growth (OD600), compound tested individually (C. neoformans H99 strain [2]; 100 μM 8HQ alone, SC media, 50 hours): not affected
MIC (C. neoformans H99 strain [2]; read-out: MIC (no Cu added), growth inhibition of C. neoformans, no Cu added): > 100 µM
MIC (C. neoformans H99 strain [2]; read-out: MIC (with added Copper(II) Sulfate), growth inhibition of C. neoformans, * 10 M Cu2+): 5 µM (≈ 0.726 µg/mL)
MIC (C. neoformans H99 strain [2]; read-out: MIC of 8HQ with supplemental Cu, 10 μM supplemental Cu (CuSO4)): 5 µM
MIC (C. neoformans H99 strain [2]; read-out: MIC of 8HQ with supplemental iron, 10 μM supplemental iron): 50 µM
MIC (C. neoformans H99 strain [2]; read-out: MIC of 8HQ with supplemental silver, 10 μM supplemental silver): 25 µM
MIC (C. neoformans H99 strain [2]; read-out: MIC of 8HQ with supplemental zinc, 10 μM supplemental zinc): 50 µM
Growth of transporter mutant on addition of 8HQ [8]: promotes growth
8HQ concentration at which growth defect begins [9]: 6.25 µM
Colony-forming units (CFUs) after 50 h (C. neoformans H99 strain [10]): absence of CFUs
Concentration above which S. aureus growth is inhibited (S. aureus): ~150 µM
